Results taken from patent publication US5760054A, “Alpha IC adrenergic receptor antagonists” (priority 1996, dated 1998).
Substitutions are numbered along the chain they refer to. Where two headings read alike, the source gives them in different places.

Tests used:
[1] = target: human/rat alpha1B adrenergic receptor; test: Selective binding assay, competition with [125I]-HEAT on COS-7 membranes, α1B; set-up: species or system human/rat hybrid
Description: The partial human alpha1B adrenergic receptor cDNA was joined to the 3' end of the rat alpha1B adrenergic receptor cDNA at their common BssHII restriction endonuclease site. ID:25:
The complete coding region for the human/rat alpha1B adrenergic receptor was subcloned into the eukaryotic expression vector pcDNAI-neo (Invitrogen). The resulting plasmid was transfected into COS-7 cells by electroporation. […] Binding reactions (total volume=200 ul) contained 50 mM Tris-HCl pH. […] Reactions are incubated at room temperature for one hour with shaking. Reactions were filtered onto Whatman GF/C glass fiber filters with a Brandel cell harvester. Filters were washed three times with ice cold buffer and bound radioactivity was determined.
(§1) These competition binding reactions (total volume=200 ul) contain 50 mM Tris-HCl pH. […] Reactions are incubated at room temperature for one hour with shaking. Reactions were filtered onto Whatman GF/C glass fiber filters with a Brandel cell harvester. Filters were washed three times with ice cold buffer and bound radioactivity was determined. Binding data were analyzed and IC50s determined by an iterative curve fitting program.

[2] = target: human alpha1A adrenergic receptor; test: Selective binding assay, competition with [125I]-HEAT on COS-7 membranes, α1A; conditions: Table I, 100 pM [125I]-HEAT
Description: The resulting plasmid was transfected into COS-7 cells by electroporation.
(§2) Binding reactions (total volume=200 ul) contained 50 mM Tris-HCl pH. […] Reactions are incubated at room temperature for one hour with shaking. Reactions were filtered onto Whatman GF/C glass fiber filters with a Brandel cell harvester. Filters were washed three times with ice cold buffer and bound radioactivity was determined.
as §1

[3] = target: T1, human alpha1C adrenergic receptor (Homo sapiens, UniProt P35348, C347R); test: Selective binding assay, competition with [125I]-HEAT on COS-7 membranes, α1C; conditions: Table I, 100 pM [125I]-HEAT
T1 construct: expressed in transfected cells; host or cells: COS-7 cells (pcDNAI-neo, electroporation), membranes
T1 sequence (P35348 1-466 C347R): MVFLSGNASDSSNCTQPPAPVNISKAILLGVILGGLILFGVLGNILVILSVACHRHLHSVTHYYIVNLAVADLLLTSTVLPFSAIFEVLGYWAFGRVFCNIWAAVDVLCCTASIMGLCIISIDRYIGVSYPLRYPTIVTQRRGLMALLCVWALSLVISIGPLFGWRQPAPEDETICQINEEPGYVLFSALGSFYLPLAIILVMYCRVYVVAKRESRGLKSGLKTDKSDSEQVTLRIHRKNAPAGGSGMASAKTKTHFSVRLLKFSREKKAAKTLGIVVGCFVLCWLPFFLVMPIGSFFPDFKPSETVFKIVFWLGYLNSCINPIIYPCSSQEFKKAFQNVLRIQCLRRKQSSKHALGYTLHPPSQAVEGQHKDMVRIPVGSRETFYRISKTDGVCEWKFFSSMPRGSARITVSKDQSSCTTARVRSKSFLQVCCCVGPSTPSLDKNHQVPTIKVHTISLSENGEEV
Description: as §2, with “The resulting plasmid was transfected into COS-7 cells by electroporation. […] Binding” for “Binding”, “were” for “are”
as §1, §1

[4] = target: T2, human alpha-1c adrenergic receptor, allele 1 (LRR) (Homo sapiens, UniProt P35348, C347R); test: biochemical
T2 sequence (P35348 1-466 C347R): T1 sequence (P35348 1-466 C347R)
From the text: (§3) To investigate the pharmacological profiles of the two allelic forms of the human alpha-1c adrenergic receptor we ligated the genomic exon 2 fragment of allele 2 to a cDNA clone of allele 1 at a common PvuII restriction site. The two allelic forms were transiently expressed in COS-7 cells using pcDNAI/NEO (Invitrogen) expression vector.

[5] = target: T3, human alpha-1c adrenergic receptor, allele 2 (LCR) (Homo sapiens, UniProt P35348); test: biochemical
T3 sequence (P35348 1-466): T1 sequence (P35348 1-466 C347R) with R347C
From the text: as §3

[6] = Table I, 100 pM [125I]-HEAT, COS-7 membranes

| IC50 [1, 6] [nM] | IC50 [2] [nM] | IC50 [3] [nM] | SMILES | further results |
| --- | --- | --- | --- | --- |
| 5 | – | – | COc1cc2nc(N3CCN(C(=O)C4CCCO4)CC3)nc(N)c2cc1OC (centres unmarked) [terazosin] | – |
| 68 | 2.5 | 1.5 | COc1cccc(OC)c1OCCNCC1CSc2ccccc2O1 (centres unmarked) [benoxathian] | – |
| 270 | 42 | 3.5 | COc1ccccc1N1CCN(CCCNc2c(C)c(=O)n(C)c(=O)n2C)CC1 [5-methyl urapidil] | IC50 [4]: 3.1 nM; IC50 [5]: 4.3 nM |
| 2 | – | – | COc1cc2nc(N3CCN(C(=O)C4COc5ccccc5O4)CC3)nc(N)c2cc1OC (centres unmarked) [doxazosin] | – |

The remaining lines, values behind:

| SMILES | IC50 [1, 6] [nM] | IC50 [2] [nM] | IC50 [3] [nM] | further results |
| --- | --- | --- | --- | --- |
| COC(=O)C1=C(C)NC(C)=C(C(=O)OCCCN2CCC(c3ccccc3)(c3ccccc3)CC2)[C@H]1c1cccc([N+](=O)[O-])c1 [S(+) niguldipine] | – | – | – | IC50 [1]: 670 nM |
| COc1cc2nc(N3CCN(C(=O)c4ccco4)CC3)nc(N)c2cc1OC [prazosin] | – | – | – | IC50 [1]: 2.4 nM |
| CC(COc1ccccc1)N(CCCl)Cc1ccccc1 (centres unmarked) [phenoxybenzamine] | 4.3 | 6.1 | – | – |
| Cc1ccc(N(CC2=NCCN2)c2cccc(O)c2)cc1 [phentolamine] | 650 | – | – | – |
| COc1cccc(OC)c1OCCNCC1COc2ccccc2O1 (centres unmarked) [WB4101] | 16 | 1 | 1 | IC50 [4]: 0.9 nM; IC50 ([5]; read-out: IC50 LCR, Table II, allele 2 (Cys at amino acid 347), COS-7, 125I-HEAT): 1 nM |
